# Tested on: human ovarian cancer (IA9) cell line
# Assay: Activity against HTCL replication, IA9
# Assay type: cell-based
# Experimental: Compounds were assayed for in vitro cytotoxicity in a panel of human tumor cell lines at the School of Pharmacy, University of North Carolina at Chapel Hill, according to procedures described previously [Lee, K. H., Lin, Y. M., Wu, T. S., Zhang, D. C., Yamagishi, T., Hayashi, T., Hall, I. H., Chang, J. J., Wu, R. Y., Yang, T. H. The cytotoxic principles of Prunella vulgaris, Psychotria serpens, and Hyptis capitata: Ursolic acid and related derivatives. Planta Med. 1988, 54, 308-11; Boyd, M. R. Status of the National Cancer Institute preclinical antitumor drug discovery screen: implications for selection of new agents for clinical trial. Devita, V. T., Jr. Hellman, S., Rosenberg, S. A., Eds, J. B. Cancer: Principles and Practice of Oncology Update, 1989, 3: pp1-12, Lippincoft: Philadephia; Monks, A., Scudiero, D., Skehan, P., Shoemaker, R., Paull, K., Vistica, D., Hose, C., Langley, J., Cronise, P., Vaigro-Wolff, A., Gray-Goodrich, M., Campbell, H., Mayo, J., Boyd, M. Feasibility of a high-flux anticancer drug screen using a diverse panel of cultured human tumor cell lines. J. Natl. Cancer Inst. 1991, 83, 757-66.] The cell lines included human ovarian cancer (1A9), ileocecal carcinoma (HCT-8), lung carcinoma (A-549), glioblastoma (U-87-MG), bone (HOS), epidermoid carcinoma of the […] (KB), P-gp-expressing epidermoid carcinoma of the nasopharynx (KB-VIN), and melanoma (SKMEL-2) cell line. The cytotoxic effects of each compound were obtained as EC50 values, which represent the molar drug concentrations required to cause 50% inhibition.
# Antitumor activity of compounds IX-8 and X-8 was further tested on the following 8 cancer cell lines: CAKI, HOS, KB, KB-VIN, SK-MEL-2, U87-MG, HCT-8 and IA9. […] It is worth mentioning that these two compounds were quite active against human ovarian cancer cells (IA9), which were known to have a high level of drug resistant P-glycoprotein. IC50 of compound IX-8 against these cancer cells is only 0.03 μg/mL. Thus, this compound is really worth developing, particular against drug resistant ovarian cancer.
smiles,measurement,setting,value
"COc1ccc2[nH]c(-c3cccc(F)c3)c(C(=O)O)c(=O)c2c1 [IX-8, 3′-Fluoro-6-methoxy-2-phenyl-4-quinolone-3-carboxylic acid]",IC50,"Homo sapiens, IA9, as worded in text, read-out: IC50 against human ovarian cancer cells (IA9)",0.03 µg/mL
same,ED50 IA9,"ovarian cancer IA9, mean ED50",0.03 µg/mL
